Results from patent US9499711B2, “Treatment liquid and recording method” (Seiko Epson Corporation, priority 2014, dated 2016).

Assay: physchem
Conditions: not given
For `CCCCCO` [1-pentanol], the logP was 1.4.

Same assay, conditions: log P value
For `CC(C)(O)CCO` [3-methyl-1,3-butanediol], the logP was 0.16. In the case of `CCCOC(C)COC(C)CO` (centres unmarked) [Dipropylene glycol monopropyl ether], the logP is reported as 0.87. `CCOCCOCCOCC` [diethylene glycol diethyl ether] gave a logP of 0.39. Compound `CCCCOCCOCCO` [diethylene glycol monobutyl ether] has a logP of 0.56. With `CCCCCCOCCOCCO` [diethylene glycol monohexyl ether] the logP was 1.7. Compound `CCCCCCOCCO` [ethylene glycol monohexyl ether] has a logP of 1.7. For `CCCCOCC(C)O` (centres unmarked) [propylene glycol monobutyl ether], the logP was 1.15. For `CCOCC(C)O` (centres unmarked) [propylene glycol monoethyl ether], the logP was 0.3. Work on `CCCOCC(C)O` (centres unmarked) [propylene glycol monopropyl ether] yielded a logP of 0.62. `CCCCOC(C)COC(C)COC(C)CO` (centres unmarked) [tripropylene glycol monobutyl ether] showed a logP of 1.34.

Same assay, conditions: logP value of organic compound
`CCCC(O)C(CC)CO` (centres unmarked) [2-Ethyl-1,3-hexane diol] showed a logP of 1.6. With `CCCOC(C)COC(C)CO` (centres unmarked) [Dipropylene glycol monopropyl ether] the logP was 0.6. `CCOCCOCCOCCO` [Triethylene glycol monoethyl ether] gave a logP of -2.75.
